Experimental data as given in publication PMC11748689, “Pharmacological and structural understanding of the Trypanosoma cruzi proteasome provides key insights for developing site-specific inhibitors” (The Journal of Biological Chemistry, 2024).

What was measured:
[1] = target: recombinant β4^R mutant T. cruzi proteasome (caspase-like activity) (Trypanosoma cruzi, UniProt V5BHX1); test: Caspase-like activity assay (Proteasome-Glo), recombinant β4^R mutant T. cruzi proteasome; type: biochemical
Experimental: (§1) Point mutations were created in individual subunits using overlapping PCR from the original templates using Polh and Tn7L primers outside the genes and suitable internal primers to introduce selected mutations. For Δβ1Δβ2, β1 Thr 55, and β2 Thr 67 were both mutated to Ala, the β4^R mutant was produced by mutating Phe 24 and Ile 29 to Leu and Met respectively in β4 subunit.
(§2) Chymotrypsin-, trypsin-, and caspase-like activity assays were performed using a commercially available Proteasome-Glo 3-substrate system assay kit (catalog number G8532) (Promega Corporation) according to the manufacturers protocols and as previously described ([24]).
(§3) Prior to running assays, Proteasome-Glo buffer was used to reconstitute the luciferin detection reagent (containing a recombinant thermostable luciferase enzyme). The resuspended luciferin detection reagent was then mixed with Proteasome-Glo chymotrypsin-, trypsin- or caspase-like substrates (either 40 μM suc-Leu-Leu-Val-Tyr-aminoluciferin, 30 μM Z-Leu-Arg-Arg-aminoluciferin (Z is benzyloxycarbonyl) or 40 μM Z-Nle-Pro-Nle-Asp-aminoluciferin respectively (these concentrations represent 2x final assay concentrations)). These substrate mixtures were allowed to incubate at room temperature for 60 min prior to use to allow the removal of any contaminating free aminoluciferin.
(§4) Proteasome assays were carried out using 384-well, white, low-volume plates (catalog number 784904) (Greiner Bio-One) at room temperature (∼23 °C) in 8 μl reaction volumes. When activity checks were to be run in the presence or absence of a fixed concentration of proteasome inhibitor, 80 nL of the inhibitor (at a concentration 100x the required final assay concentration), or 80 nL dimethylsulfoxide (DMSO), were dispensed into assay plates using an Echo 550 acoustic dispenser (Labcyte).
(§5) A 1 in 2 dilution series of the various T. cruzi proteasome samples (native, recombinant WT, β4^R mutant, and Δβ1Δβ2 mutant) were produced in assay buffer (50 mM Tris–HCl, pH 7.5, 10 mM sucrose, 5 mM MgCl2, 1 mM DTT, 2 mM ATP, 150 mM NaCl, 1 mM EDTA, and 0.05 mg/ml bovine serum albumin). Subsequently, 4 μl of the various concentrations of diluted proteasome were added to assay plates using an electronic multichannel pipette (Integra Biosciences Ltd). When kinetic read activity checks were performed (Fig. 2), proteasome final assay concentrations used were 115 μg/ml, 115 μg/ml, and 230 μg/ml native proteasome (in the chymotrypsin, trypsin, and caspase assays, respectively), and 4.1 μg/ml, 3.4 μg/ml, or 1.4 μg/ml recombinant WT proteasome (in the chymotrypsin, trypsin, and caspase assays, respectively). When activity checks were to be run in the presence or absence of a proteasome inhibitor plates containing inhibitor or DMSO control were incubated with the relevant proteasome sample for 60 min at room temperature (this step was not included in activity check experiments where compounds were not used).
(§6) Following the 60 min incubation of proteasome and compound (if required), assays were initiated with the addition of 4 μl of substrate mix (containing substrate and the luciferin detection reagent) using an electronic multichannel pipette. Final assay concentrations of substrates used were either 20 μM Suc-Leu-Leu-Val-Tyr-aminoluciferin, 15 μM Z-Leu-Arg-Arg-aminoluciferin, or 20 μM Z-Nle-Pro-Nle-Asp-aminoluciferin for chymotrypsin-, trypsin- or caspase-like activity respectively.
(§7) Luminescence was read either kinetically or as an endpoint read using an EnVision 2102 Multilabel Reader (PerkinElmer, Inc) with 0.2 s per well reading time. When kinetic assays were run, luminescence was read every 5 min for 90 min. Endpoint assays were run for 60 min before luminescence was read. All data processing and linear fit analyses were performed using Microsoft Excel for Microsoft 365 software (Redmond, Washington; https://www.microsoft.com/).

[2] = target: native T. cruzi proteasome (caspase-like activity, β1) (Trypanosoma cruzi, UniProt V5BHX1); test: Caspase-like activity assay (Proteasome-Glo), native T. cruzi proteasome; type: biochemical; settings: mean ± SD, N = 3; for IC50: read-out: pIC50, Caspase Assay, Native (converted)
Experimental: as §2, §3
(§8) When proteasome inhibitors were to be screened in the chymotrypsin, trypsin, and caspase assays, test compounds were dispensed into assay wells using an ECHO 550 acoustic dispenser (Labcyte) (final DMSO concentration 1%). Compounds were tested in either a 10-point concentration series (30 μM top final assay concentration, 1 in 3 dilution series) or a 12-point concentration series (30 μM top final assay concentration, 1 in 2.5 dilution series).
(§9) Proteasome assays were then performed as described above using Promega Proteasome-Glo 3-substrate system assay kit. […] Diluted proteasome (4 μl) was added to assay plates using an electronic multichannel pipette (Integra Biosciences Ltd) and the proteasome incubated with compound for 60 min at room temperature.
(§10) Following the 60 min incubation of proteasome and compounds, assays were initiated with the addition of 4 μl of a substrate mix (containing substrate and the luciferin detection reagent) using an electronic multichannel pipette. Final assay concentrations of substrates used were either 20 μM Suc-Leu-Leu-Val-Tyr-aminoluciferin, 15 μM Z-Leu-Arg-Arg-aminoluciferin, or 20 μM Z-Nle-Pro-Nle-Asp-aminoluciferin for chymotrypsin-, trypsin-, or caspase-like activity, respectively. Following a further 60 min assay incubation, luminescence was read using an EnVision 2102 Multilabel Reader (PerkinElmer, Inc) with 0.2 s per well reading time.
(§11) All data processing was performed using Microsoft Excel for Microsoft 365 software.
(§12) Nonlinear dose-response curve fitting was carried out using the Microsoft Excel add-in, XLfit (IDBS). Percentage inhibition data were either fitted to a standard 4-parameter logistic fit model (XLfit model 205; Equation 2) or a biphasic model (either XLfit model 300; Equation 3 or a custom biphasic model; Equation 4 (used in cases where the top and/or bottom parameters deviated from 100%/0% inhibition)).(2) y=A+(B−A)/1+(C/x)^D Where A = % inhibition at bottom, B = % inhibition at top, C = IC50, D = slope, x = inhibitor concentration and y = % inhibition.(3) y=(A/(1+10^(C−log(x))∗B))+((100−A)/(1+10^(D−log(x))∗B)) With A = % inhibition at midplateau, B = slope, C = log(IC50^A), D = log(IC50^B)).
(§13) All IC50 data generated were converted to pIC50 using Equation 5.

[3] = target: recombinant WT T. cruzi proteasome (caspase-like activity, β1) (Trypanosoma cruzi, UniProt V5BHX1); test: Caspase-like activity assay (Proteasome-Glo), recombinant wild-type T. cruzi proteasome; type: biochemical
Experimental: as §2, §3, §8, §9, §10, §11, §12, §13

[4] = target: recombinant WT T. cruzi proteasome (chymotrypsin-like activity, β5) (Trypanosoma cruzi, UniProt V5BU39+V5C017); test: biochemical; type: biochemical; settings: for maximum % inhibition plateau, Chymotrypsin Assay, Wild-type: mean ± SD, N = 3 (N = 2 for DDD02091966), (a) mid-point plateau from biphasic curve fits
Experimental: as §2, §3, §4, §5, §6, §7, §8

[5] = target: recombinant β4^R mutant T. cruzi proteasome (trypsin-like activity) (Trypanosoma cruzi, UniProt V5BCU3); type: biochemical; settings: mean ± SD, N = 3
Experimental: as §1, §2, §3, §4, §5, §6, §7

[6] = target: recombinant β4^R mutant T. cruzi proteasome (chymotrypsin-like activity) (Trypanosoma cruzi, UniProt V5BU39+V5C017, F24L/I29M); test: biochemical; type: biochemical
Experimental: as §1, §2, §3, §4, §5, §6, §7

[7] = target: recombinant Δβ1Δβ2 mutant T. cruzi proteasome (chymotrypsin-like activity) (Trypanosoma cruzi, UniProt V5BU39+V5C017); test: biochemical; type: biochemical
Experimental: as §1, §2, §3, §4, §5, §6, §7

[8] = test system: intracellular T. cruzi Silvio X10/7 A1 amastigotes; test: Intracellular T. cruzi assay; type: cell-based; settings: Trypanosoma cruzi; 96 h compound treatment, Vero host cells; given as [mean pEC50, SD, N]; read-out: Mean pEC50 against intracellular T. cruzi parasites (converted)
Experimental: Potency against intracellular T. cruzi Silvio X10/7 A1 amastigotes was determined as described previously ([53]), with a sole modification that the compound treatment duration was 96 h instead of 72 h. Vero host cells were obtained from The European Collection of Authenticated Cell Cultures (cat. number 84113001) and tested for mycoplasma (negative). T. cruzi Silvio X10/7 A1 was obtained from Prof. Alan Fairlamb, and discrete typing unit confirmed by genotyping ([53]).

[9] = target: native T. cruzi proteasome (trypsin-like activity, β2) (Trypanosoma cruzi, UniProt V5BCU3); test: Trypsin-like activity assay (Proteasome-Glo), native T. cruzi proteasome; type: biochemical; settings: mean ± SD, N = 3; for IC50: read-out: pIC50, Trypsin Assay, Native (converted)
Experimental: as §2, §3, §8, §9, §10, §11, §12, §13

[10] = target: native T. cruzi proteasome (chymotrypsin-like activity, β5) (Trypanosoma cruzi, UniProt V5BU39+V5C017); test: Chymotrypsin-like activity assay (Proteasome-Glo), native T. cruzi proteasome; type: biochemical
Experimental: as §2, §3, §8, §9, §10, §11, §12, §13

[11] = target: recombinant WT T. cruzi proteasome (trypsin-like activity, β2) (Trypanosoma cruzi, UniProt V5BCU3); test: biochemical; type: biochemical; settings: mean ± SD, N = 3; for IC50: read-out: pIC50, Trypsin Assay, Wild-type (converted)
Experimental: as §2, §3, §8, §9, §10, §11, §12, §13

`CC(C)C[C@H](NC(=O)[C@H](Cc1ccccc1)NC(=O)c1cnccn1)B(O)O` [Bortezomib] gave an IC50 [1] of 93.3 nM, an IC50 [2] of 72.4 nM and an IC50 [3] of 72.4 nM.

`O=C(Nc1ccc(F)c(-c2cn3nc(N4CCOCC4)cnc3n2)c1)N1CCCC1` [DDD01012247] was tested, and the IC50 [1] was over 30200 nM, the IC50 [4] was 16.2 nM and the “maximum % inhibition plateau, Chymotrypsin Assay, Wild-type” value (shortened to “maximum % inhibition plateau … Wild-type”) [4] was 68.9 ± 3.5%. For the same compound, the “pIC50, Trypsin Assay, β4^R mutant” value [5] was under 4.52, the IC50 [6] was 6920 nM and the IC50 [7] was 19.5 nM. It also gave an EC50 [8] of 126 nM, an IC50 [2] of over 30200 nM and an IC50 [9] of over 30200 nM. For the same compound, the IC50 [3] was over 30200 nM, the IC50 [10] was 12 nM and the IC50 [11] was over 30200 nM.

In the case of `CNC(=O)c1cc(NC(=O)c2ccc(=O)n(Cc3ccc(OC)cc3)n2)ccc1F` [DDD02097487], the IC50 [1] is reported as over 30200 nM, the IC50 [4] is reported as 178 nM and the “maximum % inhibition plateau … Wild-type” value [4] is reported as 48.2 ± 3.6%. The “pIC50, Trypsin Assay, β4^R mutant” value [5] was under 4.52, the IC50 [6] was over 30200 nM and the IC50 [7] was 155 nM. The “extent of inhibition in chymotrypsin dose-response curve, Δβ1Δβ2 mutant” value ([7]; top of dose-response curve) was “unable to fully inhibit”, the EC50 [8] was 794 nM and the IC50 [2] was over 30200 nM. For the same compound, the IC50 [9] was over 30200 nM, the IC50 [3] was over 30200 nM and the IC50 [10] was 120 nM. It also gave an IC50 [11] of over 30200 nM.

`CC[C@H](C)[C@H](NC(=O)[C@H]([C@@H](C)CC)N(C)C(C)=O)C(=O)N[C@H](C(=O)N[C@@H](CC(C)C)C(=O)[C@@]1(C)CO1)[C@@H](C)O` [Epoxomicin, reference compound] was tested, and the “pIC50, Caspase Assay, β4^R mutant” value ([1]; mean ± SD, N = 3) was 5.88 ± 0.03, the “pIC50, Chymotrypsin Assay, Wild-type” value [4] was 7.40 ± 0.17 and the “maximum % inhibition plateau … Wild-type” value [4] was 96.1 ± 3.0%. For the same compound, the “pIC50, Trypsin Assay, β4^R mutant” value [5] was 6.11 ± 0.06, the “pIC50, Chymotrypsin Assay, β4^R mutant” value ([6]; mean ± SD, N = 3, biphasic curves (a): pIC50 of most potent curve) was 7.33 ± 0.15 and the “maximum % inhibition plateau, Chymotrypsin Assay, Δβ1Δβ2 mutant” value ([7]; mean ± SD, N = 3) was 100.1 ± 0.5%. For the same compound, the “pIC50, Chymotrypsin Assay, Δβ1Δβ2 mutant” value ([7]; mean ± SD, N = 3) was 7.44 ± 0.03, the “pIC50, Caspase Assay, Native” value [2] was 5.99 ± 0.01 and the “pIC50, Trypsin Assay, Native” value [9] was 6.08 ± 0.00. The “pIC50, Caspase Assay, Wild-type” value ([3]; mean ± SD, N = 3) was 5.97 ± 0.03, the “pIC50, Chymotrypsin Assay, Native” value ([10]; mean ± SD, N = 3, biphasic curves (a): pIC50 of most potent curve, 60 min preincubation) was 7.50 ± 0.12 and the “pIC50, Trypsin Assay, Wild-type” value [11] was 6.09 ± 0.04.
